Tests used:
Human normal fibroblasts = test: inhibition of oxidative DNA damage, single cell gel electrophoresis (comet assay); format: cell-based; conditions: H2O2 10^-3 M; test material 10 ppm
Description: Human normal fibroblasts were cultured for 24 hr and treated with varying concentrations of each of the ginseng berry extract of Example 1 and vitamin E. After 12 hr, the cells were treated with the positive control H2O2 (final concentration: 10^−3M), and then stained by electrophoresis. […] Herein, the image analyzer KOMET 3.1 (Kinetic Imaging, England) was used to analyze the tail length (μm) resulting from the digestion of DNA in each of 25 cells, and the analysis results are shown in Table 3 below.

ceramide = test: epidermal lipid (total ceramide) in human skin (TLC); format: in vivo; conditions: 5 wt % test material, twice every day, non-treated group = 100%
Description: In order to evaluate the effect of the ginseng berry extract of Example 1 on an increase in lipid synthesis in human skin, 0.5 wt % of Carbopol ETD 2020, 0.45% of TEA, 5 wt % of the test material and the balance of deionized water were used. On 12 adult men and women, a region corresponding to the diameter of a polypropylene conical tube was marked on the arm, and then was applied with 20 μl of each of control groups and the ginseng berry extract of Example 1 twice every day. The subjects were divided into two groups, and the production of lipid in the applied region was analyzed in the following manner by extracting lipid at day 3 and day 11. Specifically, the arm was washed with service water, and then subjected to tape stripping once with Scotch 810 Magic tape. Then, 1 ml of a mixture of cyclohexane/ethanol (4:1) was added to the tape using a cut 50-ml polypropylene conical tube as a reservoir and stirred for about 1 minute, and then the solution was transferred into a fresh tube. Then, the tape was treated with 1 ml of a mixture of cyclohexane/ethanol (1:1) in the same manner as described above, and the solution was collected in the tube. […]
After the TLC plate was developed, the size of each band was measured at a wavelength of 570 nm using TLC scanner-II (CAMAG; densitometer).

human skin = test: whitening effect on UVB-darkened human skin (colorimeter); format: in vivo; conditions: UVB-darkened upper arm, 10 weeks of application
[1] = tested on: C57BL/6 mouse melanocytes (Mel-Ab cells); test: melanin production inhibition in mouse melanocytes; format: cell-based; conditions: positive control, concentration not given
5-alpha-reductase = 5-alpha-reductase activity, testosterone to dihydrotestosterone; format: biochemical, rat; conditions: 100 μg extract per reaction
Description: Adult SD (Spraque-Dawley) male rats (7-8-week old) were sacrificed with diethyl ether, the abdominal prostate was extracted, and the connective tissue was removed. The prostate tissue was finely cut in buffer (0.32 M sucrose, 0.1 mM dithiothreitol and 20 mM sodium acetate), and was then suspended with a stirrer. The suspension was centrifuged, and the supernatant was collected. 5-alpha-reductase was partially purified from the supernatant in order to the activity thereof.
A portion of the above-collected supernatant was taken and placed in buffer containing 0.2 M monobasic acid and 0.2 M dibasic acid. Then, the solution was allowed to react with a ^3H-bound substrate (testosterone), and the production of the product dihydrotestosterone was measured.
The reaction solution contained 1 mM dithiothreitol, 40 mM sodium phosphate (pH 6.5), 50 μM NADPH, [1,2,6,7-^3H] testosterone/testosterone ([…]), 0.8 mg enzyme suspension and 565 μl protein.
The ginseng berry extract of Example 1 was dissolved in 10% ethanol and added in an amount of 100 μg extract/10 μl 10% ethanol per reaction. […]
The plastic sheet was dried in air, and then a VAS system was used to measure of isotopes. Specifically, the dried plastic sheet together with an X-ray film was placed in a VAS cassette, and after 1 week, the amounts of the testosterone and dihydrotestosterone isotopes remaining on the film were measured.

[2] = tested on: lipogenesis in sebaceous glands; test: lipogenesis inhibition in hamster ear tissue (C14 uptake); format: cell-based; conditions: 0.01% test material solution, 6 hours, average of 4 hamsters
Description: The degree of lipogenesis in sebaceous glands was evaluated by evaluating the inhibition of lipogenesis through the quantification of carbon uptake required for lipogenesis.
Specifically, the ear tissue of hamsters, having abundant sebaceous glands, was biopsied, and the degree of lipogenesis was evaluated by comparatively quantifying the control group and the test materials using a radioactivity meter in C14-labeled media for 6 hours. In the test material groups, the right ear tissue of hamsters was used and 0.01% test material solutions were added to the media, and in the control group, the left ear tissue of hamsters was used and 0.01% saline was added to the media.
Meanwhile, the inhibition (%) in Table 17 was calculated according to the following equation 4 and was expressed as the average of 4 hamsters. […] [Equation 4]

Compound: vitamin E
- Inhibition of oxidative damage to DNA (Human normal fibroblasts): 38.9%
- Tail length (Human normal fibroblasts): 70.6 μm

Compound: OCC(O)CO [Glycerin, glycerin]
- production of ceramide, After 3 days of treatment (ceramide): 102%
- production of ceramide, After 11 days of treatment (ceramide): 94%

Compound: Oc1ccc(O)cc1 [Hydroquinone, hydroquinone]
- Skin-color brightness (ΔL*) (human skin): 1.90 ± 0.13
- Melanin production inhibition [1]: 41.1%

Compound: Cc1cc2nc3c(=O)[nH]c(=O)nc-3n(C[C@H](O)[C@H](O)[C@H](O)CO)c2cc1C [Positive control group, riboflavin]
- Conversion: radioactivity in the DHT region/total radioactivity (5-alpha-reductase; 37° C., 30 minutes): 28.7%
- Inhibition of 5-alpha-reductase (5-alpha-reductase; vs conversion of control group): 32.4%

Compound: CC1=C(/C=C/C(C)=C/C=C/C(C)=C/C(=O)O)C(C)(C)CCC1 [retinoic acid]
- Inhibition of lipogenesis [2]: 52%

— patent US8877264B2, “Composition of skin external application containing ginseng berry extracts” (Amorepacific Corporation, priority 2007, dated 2014)
